From PMC2193169 (The Journal of Experimental Medicine, 2000) come the findings set out here.

Assay [1] deals with T1, Cathepsin F (Cat F) (Mus musculus, UniProt Q9R013).
T1 sequence (Q9R013 249-462): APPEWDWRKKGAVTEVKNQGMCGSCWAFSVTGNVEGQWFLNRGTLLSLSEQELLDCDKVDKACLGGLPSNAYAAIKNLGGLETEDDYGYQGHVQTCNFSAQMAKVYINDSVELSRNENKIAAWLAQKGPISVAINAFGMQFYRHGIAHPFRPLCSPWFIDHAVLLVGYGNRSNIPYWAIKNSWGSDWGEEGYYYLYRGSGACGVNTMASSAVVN
The format is cell-based.

The target of assay [2] is Cathepsin Z (Cat Z) (Mus musculus, UniProt Q9WUU7). Put plainly: competition of […]-JPM565 active-site labeling in transfected […] cell lysate. In kind it is biochemical.
Sequence of Cathepsin Z (Cat Z) (Q9WUU7 64-306): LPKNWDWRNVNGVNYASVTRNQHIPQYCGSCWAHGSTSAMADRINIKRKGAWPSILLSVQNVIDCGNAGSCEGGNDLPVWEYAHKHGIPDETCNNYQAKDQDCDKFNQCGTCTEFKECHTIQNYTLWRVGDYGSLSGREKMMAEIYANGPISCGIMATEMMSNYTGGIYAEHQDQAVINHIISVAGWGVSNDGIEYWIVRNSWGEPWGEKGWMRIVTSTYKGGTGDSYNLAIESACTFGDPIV

The structures appear in SMILES notation.

Turning to `CC(C)C[C@H](NC(=O)N1CCOCC1)C(=O)N[C@H](/C=C/S(=O)(=O)c1ccccc1)CCc1ccccc1` [LHVS], the complete inhibition in assay [1] is recorded as 1 (complete inhibition) μM.

On to `CC(C)C[C@H](NC(=O)[C@H]1O[C@@H]1C(=O)O)C(=O)NCCCCNC(=N)N` [E64], for which the “inhibits at this concentration” value in assay [2] is 20 (inhibits at this concentration) μM.
